In paper PMC5021948, “Amyloidogenic amyloid-β-peptide variants induce microbial agglutination and exert antimicrobial activity” (Scientific Reports, 2016):

Assays:
[1] = tested on: Candida albicans (ATCC 10231); assay: Colony forming units after plating Aβ-treated cultures; type: cell-based; details: 50 μg/ml peptide
Description: (§1) Enterococcus faecalis (ATCC 29212), Listeria monocytogenes (VA 15110/93), Escherichia coli (DH5α) and Staphylococcus aureus (ATCC 25923) were grown aerobically on blood agar plates. Candida albicans (ATCC 10231) was plated on Sabouraud dextrose agar plates. E. coli, S. aureus and C. albicans were cultured at 37 °C; E. faecalis and L. monocytogenes were cultured at 37 °C with an additional 5% CO2. Before the experiments, the organisms were subcultured to generate mid-logarithmic growth cultures for use as inoculates. Colonies from the agar were transferred using a sterile loop to Mueller-Hinton broth (Roth, Karlsruhe, Germany) and incubated for 100 min at 39 °C to achieve a McFarland density of 0.5. The C. albicans and bacterial inocula were normalized in Mueller-Hinton broth to 5 × 10^5 cells/ml immediately before use. For the experiments, an inoculum of 5 × 10^5 cells/ml was dispensed into 96-well plates containing Mueller-Hinton broth growth medium with Aβ peptides, as indicated below.
(§2) Immediately before the experiments, all peptides were diluted in Mueller-Hinton broth to reach a final concentration of 100 μg/ml.
(§3) The viability of E. faecalis, E. coli and C. albicans was further examined by plating Aβ-treated cultures on agar plates. Cultures of E. coli, E. faecalis and C. albicans were prepared as described above. After incubation with 50 μg/ml Aβ1-40, Aβ1-42 or Aβ3p-42 for 6 h for bacteria and 20 h for C. albicans, the cell suspensions were diluted in Mueller-Hinton broth, and the microbial load was determined using an Eddy Jet Spiral Plater (IUL Instruments, Germany) by depositing 50 μl of sample on a rotating agar plate. Bacteria were grown on Mueller-Hinton agar plates, and C. albicans was grown on Sabouraud dextrose agar plates. After 24 h of incubation, colonies were counted and translated to colony-forming units (CFU)/ml.

[2] = tested on: Enterococcus faecalis (ATCC 29212); assay: as above; type: cell-based; details: 50 μg/ml peptide, 6 h, Mueller-Hinton broth, inoculum 5 × 10^5 cells/ml, spiral plated, colonies counted after 24 h
Description: as §1, §2, §3

[3] = tested on: Escherichia coli (DH5α); assay: as above; type: cell-based; details: 50 μg/ml peptide, 6 h, Mueller-Hinton broth, inoculum 5 × 10^5 cells/ml, spiral plated, colonies counted after 24 h
Description: as §1, §2, §3

[4] = tested on: E. faecalis, E. coli, S. aureus, L. monocytogenes and C. albicans; assay: Flow cytometry of damaged microorganisms (increased autofluorescence / reduced forward scatter); type: cell-based; details: 25 or 50 μg/ml, 6 h bacteria, 20 h C. albicans
Description: as §1, with “below. […]” for “below.”
After 6 h of incubation for bacteria and 20 h for C. albicans, 50 μl of the cell suspension was diluted in 1% paraformaldehyde (Sigma-Aldrich, Munich, Germany) and stained with DAPI (Sigma-Aldrich, Munich, Germany). Flow cytometry analysis was performed using a Gallios Cytometer (Beckman Coulter, Krefeld, Germany), and the results were evaluated using Kaluza® software (Beckman & Coulter, Krefeld, Germany). Experiments were repeated at least three times for each organism, and duplicates were included for each assay condition. Cultures treated with antibiotics, Mueller-Hinton broth without cells and untreated cells served as controls. Viability was assessed based on the increase in autofluorescence and reduction of forward scatter as signs of microbial damage.

[5] = tested on: E. faecalis; assay: Automated quantification of cell aggregation on immunocytochemistry slides; type: cell-based, Enterococcus faecalis; details: 50 μg/ml, 6 h
Description: (§4) The immunocytochemistry of E. faecalis and S. aureus was examined using the Gram preparations specified above. To achieve the robust adherence of pathogens on the glass slides during the staining procedure, cells were incubated with 2% paraformaldehyde (Sigma-Aldrich, Munich, Germany) on the slides and air dried for 60 min at room temperature, followed by washing with PBS (Biochrom, Berlin, Germany). […]
(§5) All images were visually quality controlled. […] An automated quantitative phenotypic image analysis was performed using a custom-adapted version of the image analysis software DetecTiff. Pericellular Aβ peptide levels were quantified from the AF488 channel within donut-shaped masks (see Fig. 1B), which were generated from the DAPI channel in a three-step procedure. […] The Aβ peptide level in an individual cell was calculated as the arithmetic mean of all pixel values within the area of a donut-shaped mask and reported as the mean pixel intensity. Cell aggregation was quantified in an automated manner from segmented images of DAPI-stained nuclei by counting the number of bacteria adjacent to a selected individual bacterium within a rectangular 50-pixel[2] region.

[6] = tested on: S. aureus; assay: as above; type: cell-based, Staphylococcus aureus; details: 50 μg/ml, 6 h
Description: as §4, §5

[7] = tested on: E. faecalis, E. coli, S. aureus, L. monocytogenes and C. albicans; assay: Gram staining, microbial agglutination; type: cell-based; details: 50 μg/ml, 6 h (20 h for C. albicans)
Description: as §1
The same cultures analysed by flow cytometry were used for the gram staining. After incubating the bacteria and C. albicans with the peptides, 10 μl of the cell suspensions were air-dried on microscope slides and flame-fixated. The smears were flooded with crystal violet solution for 2 min. The slides were rinsed and then incubated for 2 min with iodine solution. […]

[8] = tested on: E. faecalis; assay: Scanning electron microscopy; type: cell-based, Enterococcus faecalis; details: 50 μg/ml, 6 h
Excerpt: The specimens were attached to aluminum holders and sputtered with platinum in 15-nm layers using a LEICA EM SCD-500 (Leica, Wetzlar, Germany). The surface morphology of the platinum sputter-coated samples was investigated using a JSM 6 610 scanning electron microscope (JEOL, Peabody, MA, USA) at a working distance of 10 mm and an acceleration voltage of 10 kV at room temperature.

[9] = tested on: C. albicans; assay: Proliferation by turbidimetry at 570 nm; type: cell-based, Candida albicans; details: 3.13 or 6.25 μg/ml, 20 h (Fig. 5 legend: 24 h), 37 °C
Description: as §1
An inoculum of 5 × 10^5 cells/ml was dispensed into 96-well plates containing Mueller-Hinton broth growth medium and 3.13 μg/ml or 6.25 μg/ml Aβ-peptides or LL-37 (Anaspec, Fremont, CA, USA). […] The resulting absorbance was measured with a SpectraMax 340 PC 384 microplate reader (Molecular Devices, Biberach, Germany). The proliferation of C. albicans was assessed by measuring turbidity at 570 nm.

[10] = tested on: surfaces of E. faecalis and S. aureus; assay: Immunocytochemistry (6E10), Aβ peptide bound to microbial surface; type: binding; details: 50 μg/ml, 6 h, 6E10 antibody, mean pixel intensity in donut-shaped masks
[11] = Thioflavin T assay of Aβ peptide aggregation; type: physicochemical; details: 160 μg/ml in PBS/0.4% NH4OH, 0.2 mM Thioflavin T, 37 °C, 6 h, Ex 450/Em 484 nm; with heat inactivated E. coli, S. aureus or C. albicans (McFarland 0.5) versus PBS alone or 0.5 μm carboxylated microbeads
Description: Thioflavin T was used to monitor the aggregation of Aβ1-42 in the presence of microorganisms. In a black 96-well plate, 160 μg/ml of Aβ1-42 in PBS/0.4% NH4OH were mixed with heat inactivated E. coli, S. aureus or C. albicans at a final density of McFarland 0.5. Leaving away the microorganisms or adding 10 μg/ml carboxylated microbeads (Micromod, Rostock, Germany) with a diameter of 0.5 μm served as control. After adding Thioflavin T (Sigma-Aldrich, Munich, Germany) in final concentration of 0.2 mM, kinetic measurement was performed at 37 °C with excitation at 450 nm and emission at 484 nm in a CLARIOstar® microplate reader (BMG labtech, Ortenberg, Germany). Measurements containing the respective microorganisms but no Aβ1-42 served as blank.

Substance | antimicrobial effect in culture (colony forming units) ([1]; 20 h) | reduction of the number of colony forming units compared to untreated cultures [2] | reduction of the number of colony forming units compared to untreated cultures [3] | antimicrobial / microbicidal activity by flow cytometry [4] | agglutination of bacteria (number of cells around each bacterium) [5] | agglutination of bacteria (number of cells around each bacterium) [6] | microbial agglutination in Gram stains [7] | aggregates of bacteria in scanning electron microscopy [8] | proliferation of C. albicans (turbidity) [9] | reduction of the number of colony forming units ([1]; 20 h (Fig. 5 legend: 24 h), Sabouraud dextrose agar, colonies counted after 24 h) | damaged microorganisms (reduced forward scatter and increased autofluorescence, AF+/FSC−), share of cells ([4]; DAPI-positive events) | binding of Aβ peptide to microbial surfaces [10] | agglutination (aggregation) of the peptide, Thioflavin fluorescence over time [11]
Aβ1-40: non-amyloidogenic amyloid-β peptide variant ending at position 40 (Anaspec) | moderate antimicrobial effect | not reduced | not reduced | No microbicidal activity was observed | almost no agglutination | almost no agglutination | Neither Aβ1-40 nor Aβ2-40 induced microbial agglutination | Only minor aggregates | miss the cytotoxic effect |  |  |  | 
Aβ1-42: amyloidogenic amyloid-β peptide variant ending at position 42 (Anaspec) |  | 50% | 50% | exerted antimicrobial activity | led to agglutination | led to agglutination |  |  |  | 85% | up to 70% | bound to microbial surfaces | more rapid increase in Thioflavin fluorescence
Aβ2-40: non-amyloidogenic, N-terminally truncated amyloid-β peptide variant ending at position 40 (Anaspec) |  |  |  | No microbicidal activity was observed |  |  | Neither Aβ1-40 nor Aβ2-40 induced microbial agglutination | larger aggregates of bacteria that retained their vital morphology | miss the cytotoxic effect |  |  |  | 
